Data: patent US6706740B2, “Fungicidal heterocyclic aromatic amides and their compositions, methods of use and preparation” (Dow AgroSciences LLC, priority 1999, dated 2004)

How the values were obtained:
[1] = system: Stagonospora nodorum (Leptosphaeria nodorum—LEPTNO); assay: In vitro fungal growth inhibition, Stagonospora nodorum (LEPTNO); format: cell-based; details: Leptosphaeria; 25 ppm in the growth medium; read-out: LEPTNO in vitro Growth Inhibition
Septoria tritici—SEPTTR = assay: Leaf Blotch of Wheat, in vivo whole plant, 24 Hour Protectant; details: Zymoseptoria tritici, 24 h, wheat plants sprayed at 100 ppm, inoculated after 24 hours; control of fungal infection vs untreated plants; read-out: SEPTTR in vivo 1 Day Protectant
[2] = system: Phytophthora infestans (PHYTIN); assay: microbe, parasite or virus in culture; format: cell-based; details: Phytophthora infestans, read-out: PHYTIN in vitro Growth Inhibition
[3] = system: Leptosphaeria nodorum—LEPTNO; assay: Glume Blotch of Wheat, in vivo whole plant, 24 Hour Protectant; details: Leptosphaeria; wheat plants sprayed at 100 ppm, inoculated after 24 hours; control of fungal infection vs untreated plants; read-out: LEPTNO in vivo 1 Day Protectant
[4] = system: Phytophthora infestans—PHYTIN; assay: whole plant or invertebrate; format: in vivo; details: for pest or weed control at 100 ppm: Phytophthora, in Solanum lycopersicum, 24 h, read-out: PHYTIN in vivo 1 Day Protectant
[5] = system: Puccinia recondita—PUCCRT; assay: Brown Rust of Wheat, in vivo whole plant, 24 Hour Protectant; details: wheat plants sprayed at 100 ppm, inoculated after 24 hours, control of fungal infection vs untreated plants; for pest or weed control at 100 ppm: Puccinia, read-out: PUCCRT in vivo 1 Day Protectant
Erysiphe graminis—ERYSGT = assay: Powdery Mildew of Wheat, in vivo whole plant, 24 Hour Protectant; details: Erysiphe; wheat plants sprayed at 100 ppm, inoculated after 24 hours; control of fungal infection vs untreated plants; read-out: ERYSGT in vivo 1 Day Protectant
[6] = system: Magnaporthe grisea (Pyricularia oryzae—PYRIOR); assay: microbe, parasite or virus in culture; format: cell-based; details: Pyricularia oryzae, read-out: PYRIOR in vitro Growth Inhibition
Ustilago maydis (USTIMA) = assay: microbe, parasite or virus in culture; format: cell-based; details: Mycosarcoma maydis, read-out: USTIMA in vitro Growth Inhibition
[7] = system: Mycosphaerella graminicola (Septoria tritici—SEPTTR); assay: In vitro fungal growth inhibition, Mycosphaerella graminicola (SEPTTR); format: cell-based; details: Zymoseptoria tritici; 25 ppm in the growth medium; read-out: SEPTTR in vitro Growth Inhibition
[8] = system: Rhizoctonia solani (RHIZSO); assay: microbe, parasite or virus in culture; format: cell-based; details: Rhizoctonia solani, read-out: RHIZSO in vitro Growth Inhibition

| SMILES | inhibition at 25 ppm [1] [%] | pest or weed control at 100 ppm (Septoria tritici—SEPTTR) [%] | inhibition at 25 ppm [2] [%] | pest or weed control at 100 ppm [3] [%] | pest or weed control at 100 ppm [4] [%] | pest or weed control at 100 ppm [5] [%] | pest or weed control at 100 ppm (Erysiphe graminis—ERYSGT) [%] | inhibition at 25 ppm [6] [%] | inhibition at 25 ppm (Ustilago maydis (USTIMA)) [%] | melting point | inhibition at 25 ppm [7] [%] | inhibition at 25 ppm [8] [%] | PHYTIN in vivo 1 Day Protectant ([4]; tomato plants sprayed at 100 ppm, inoculated after 24 hours, control of fungal infection vs untreated plants) | PUCCRT in vivo 1 Day Protectant [5] |
| --- | --- | --- | --- | --- | --- | --- | --- | --- | --- | --- | --- | --- | --- | --- |
| CC1(C)CC(NC(=O)c2nsnc2O)CC(C)(C)C1 [Compound 552] | > 80 | < 25 | > 80 | < 25 | 25 to 74 | < 25 | 25 to 74 | > 80 | < 80 | 96 to 102 °C | > 80 | > 80 |  |  |
| CC1(C)CC(NC(=O)c2cscc2O)CC(C)(C)C1 [Compound 554, 4-HYDROXYTHIOPHENE-N-(3,3,5,5-TETRAMETHYLCYCLOHEXYL)-3-CARBOXAMIDE] | > 80 | 25 to 74 | > 80 | 25 to 74 | < 25 | 25 to 74 | < 25 | > 80 | < 80 | 170 to 174 °C | < 80 | < 80 |  |  |
| CC(C)C(=O)O[C@H]1[C@H](C)OC(=O)[C@@H](NC(=O)c2cnn(C)c2O)COC(=O)[C@@H]1Cc1ccccc1 [Compound 556] | < 80 | < 25 | > 80 | 25 to 74 | < 25 | 25 to 74 | < 25 | < 80 | < 80 | 195 °C (dec.) | < 80 | < 80 |  |  |
| Cn1cc(C(=O)NC2CC(C)(C)CC(C)(C)C2)c(O)n1 [Compound 557] | < 80 | 25 to 74 | > 80 | 25 to 74 | < 25 | 25 to 74 | < 25 | < 80 | < 80 | 205 to 208 °C | < 80 | < 80 |  |  |
| CC(C)C(=O)O[C@H]1[C@H](C)OC(=O)[C@@H](NC(=O)c2cn(C)nc2O)COC(=O)[C@@H]1Cc1ccccc1 [Compound 558] | < 80 | 25 to 74 | < 80 | 25 to 74 | < 25 | 25 to 74 | < 25 | < 80 | < 80 | 199 to 205 °C | < 80 | < 80 |  |  |
| CC1(C)CC(NC(=O)c2cn(-c3ccccc3)nc2O)CC(C)(C)C1 [Compound 559] | < 80 | < 25 | < 80 | 25 to 74 | < 25 | 25 to 74 | < 25 | < 80 | < 80 | 215 to 217 °C | < 80 | < 80 |  |  |
| CC1(C)CC(NC(=O)c2conc2O)CC(C)(C)C1 [Compound 560] | < 80 | 25 to 74 | < 80 | 25 to 74 | < 25 | 25 to 74 | < 25 | < 80 | < 80 | 186 to 188 °C | < 80 | < 80 |  |  |
| CC(C)C(=O)O[C@H]1[C@H](C)OC(=O)[C@@H](NC(=O)c2conc2O)COC(=O)[C@@H]1Cc1ccccc1 [Compound 561] | < 80 | 25 to 74 | < 80 | < 25 | < 25 | 25 to 74 | 25 to 74 | < 80 | < 80 | 115 to 117 °C | < 80 | < 80 |  |  |
| CC(C)C(=O)O[C@H]1[C@H](C)OC(=O)[C@@H](NC(=O)c2nc3ccccc3cc2O)COC(=O)[C@@H]1Cc1ccccc1 [Compound 562] | < 80 | 25 to 74 | < 80 | < 25 | < 25 | < 25 | 25 to 74 | < 80 | < 80 | 163 to 165 °C | < 80 | < 80 |  |  |
| CC1(C)CC(NC(=O)c2nc3ccccc3nc2O)CC(C)(C)C1 [Compound 563] | < 80 | < 25 | < 80 | 25 to 74 | < 25 | < 25 | < 25 | < 80 | < 80 | > 300 °C | < 80 | < 80 |  |  |
| CC(=O)Oc1cccnc1C(=O)NC1CCC(OC(C)=O)CC1 (stereo not drawn) [Compound 564] | < 80 | < 25 | < 80 | 25 to 74 | < 25 | < 25 | < 25 | < 80 | < 80 | 158 to 161 °C | < 80 | < 80 |  |  |
| O=C(Oc1cccnc1C(=O)NC1CCC(OC(=O)c2ccccc2)CC1)c1ccccc1 (stereo not drawn) [Compound 567] | < 80 | 25 to 74 | < 80 | 25 to 74 |  | < 25 | < 25 | < 80 | < 80 | 174 to 177 °C | < 80 | < 80 | + + |  |
| Cc1ccnc(C(=O)N[C@H]2COC(=O)[C@H](Cc3ccccc3)[C@@H](OC(=O)C(C)C)[C@H](C)OC2=O)c1OC(=O)C(C)C [Compound 572] | < 80 | 25 to 74 | < 80 | 25 to 74 | < 25 |  | < 25 | < 80 | < 80 | 163 to 166 °C | < 80 | < 80 |  | + + |
| C=C1COC(=O)[C@@H](NC(=O)c2nccc(OC)c2OC(C)=O)COC(=O)C1 [Compound 595] | < 80 | < 25 | < 80 | 25 to 74 | < 25 | < 25 | < 25 | < 80 | < 80 | 163 to 164 °C | < 80 | < 80 |  |  |
